Assay results reported in ChEMBL document CHEMBL1201862, “PubChem BioAssay data set” (2004).
Active and inactive are the calls of the source.

Experiments:
[1] = viability of uninfected HEp-2 cells – cell-based, HTS, cytotoxicity control for RSV inhibitor project, dose response (AID 2410); format: functional; settings: human respiratory syncytial virus
[2] = microbe, parasite or virus in culture; format: functional; settings: Mycobacterium tuberculosis
Streptococcus = assay: GAS UMAA2166 growth inhibition – luminescence, BacTiterGlo, counter-screen for streptokinase expression inhibitor project, dose response (AID 1915); format: functional, organism-based;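 note: potency for reduction of bacterial viability or growth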
[3] = tested on: Streptococcus sp. 'group A'; assay: Streptococcus pyogenes SK(-)GAS viability under kanamycin – luminescence, BacTiterGlo, confirmation, counter-screen for streptokinase expression inhibitor project, dose response (AID 1900); format: functional, organism-based
Streptokinase A = biological target: T1, Streptokinase A (Streptococcus pyogenes serotype M1, UniProt P10520); assay: viability-normalized secreted streptokinase activity reduction – plasminogen activation absorbance, OD405, dose response (AID 1914); format: functional, Streptococcus pyogenes M1 GAS;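 note: secreted streptokinase activity via plasminogen activation per viability signal from cell pellet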
T1 sequence (P10520 whole entry): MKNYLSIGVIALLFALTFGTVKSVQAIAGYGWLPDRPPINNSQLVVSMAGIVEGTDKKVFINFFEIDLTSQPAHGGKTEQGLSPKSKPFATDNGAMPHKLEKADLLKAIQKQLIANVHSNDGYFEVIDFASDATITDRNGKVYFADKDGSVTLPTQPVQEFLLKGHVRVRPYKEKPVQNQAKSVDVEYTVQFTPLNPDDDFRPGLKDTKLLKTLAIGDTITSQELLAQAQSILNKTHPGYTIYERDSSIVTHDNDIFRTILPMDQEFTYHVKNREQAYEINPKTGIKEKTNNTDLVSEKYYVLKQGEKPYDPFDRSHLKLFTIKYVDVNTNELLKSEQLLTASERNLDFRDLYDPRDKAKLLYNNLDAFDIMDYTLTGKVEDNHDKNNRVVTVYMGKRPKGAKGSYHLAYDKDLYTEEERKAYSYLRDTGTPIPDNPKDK

[4] = fluconazole-exposed Candida albicans growth modulators – fluorescence, retest, confirmation (AID 2467); format: functional, cell-based
[5] = NIH-3T3 fibroblast cytotoxicity, dose response, cytotoxicity control, cell-based, fluorescence, Alamar Blue, secondary assay (AID 2327); format: functional;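 note: NIH-3T3 mouse fibroblasts cultured with fluconazole at 8 µg/mL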
[6] = biological target: FAD-linked sulfhydryl oxidase ALR (Homo sapiens, UniProt P55789); assay: ALR-catalysed DTT oxidation blockers – biochemical, H2O2 detection, luminescence, cherry-pick, dose response (AID 493248)
Sequence of FAD-linked sulfhydryl oxidase ALR (P55789 whole entry): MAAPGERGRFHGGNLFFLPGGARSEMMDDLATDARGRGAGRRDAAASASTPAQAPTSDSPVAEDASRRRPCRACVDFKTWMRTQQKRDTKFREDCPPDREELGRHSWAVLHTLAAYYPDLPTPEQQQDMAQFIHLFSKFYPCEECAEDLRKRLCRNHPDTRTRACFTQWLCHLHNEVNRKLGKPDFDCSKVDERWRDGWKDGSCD

H4 = assay: Luminescence Cell-Based Dose Response HTS to Identify Activators of 5'UTR Stem-Loop Driven Prion Protein mRNA Translation in H4 Neuroglioblastoma Cells. [Related pubchem assays: 1829 (Project Summary), 1814 (Primary HTS)]; format: functional; settings: Homo sapiens
[7] = biological target: T2, Heat shock factor protein 1 (Mus musculus, UniProt P38532); assay: decrease of HSF1-responsive luciferase luminescence – cell-based, NIH3T3, dose retest, confirmation (AID 2382); format: functional;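 note: NIH3T3 fibroblasts with HSF1-driven luciferase reporter stressed by proteasome inhibitor MG132; luminescence from HSF1-driven luciferase expression after 8 hours of MG132 stress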
T2 sequence (P38532 whole entry): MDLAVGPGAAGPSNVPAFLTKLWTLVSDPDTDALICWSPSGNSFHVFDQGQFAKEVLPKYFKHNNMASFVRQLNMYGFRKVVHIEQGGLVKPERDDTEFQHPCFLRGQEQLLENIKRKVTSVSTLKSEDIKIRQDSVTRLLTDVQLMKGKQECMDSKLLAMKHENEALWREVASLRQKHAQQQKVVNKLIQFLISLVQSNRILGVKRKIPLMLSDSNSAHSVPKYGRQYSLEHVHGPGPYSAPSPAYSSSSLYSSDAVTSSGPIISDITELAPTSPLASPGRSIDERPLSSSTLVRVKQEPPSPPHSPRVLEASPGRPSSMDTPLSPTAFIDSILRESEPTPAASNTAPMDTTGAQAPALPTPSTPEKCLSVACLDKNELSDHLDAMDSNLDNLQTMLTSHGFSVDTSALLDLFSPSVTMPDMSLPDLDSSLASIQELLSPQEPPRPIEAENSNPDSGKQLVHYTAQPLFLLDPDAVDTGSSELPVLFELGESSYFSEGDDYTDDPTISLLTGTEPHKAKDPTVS

Cytochrome P450 1A2 = biological target: T3, Cytochrome P450 1A2 (Homo sapiens, UniProt P05177);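 note: PubChem cytochrome P450 panel assay, CYP1A2 panel member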
T3 sequence (P05177 whole entry): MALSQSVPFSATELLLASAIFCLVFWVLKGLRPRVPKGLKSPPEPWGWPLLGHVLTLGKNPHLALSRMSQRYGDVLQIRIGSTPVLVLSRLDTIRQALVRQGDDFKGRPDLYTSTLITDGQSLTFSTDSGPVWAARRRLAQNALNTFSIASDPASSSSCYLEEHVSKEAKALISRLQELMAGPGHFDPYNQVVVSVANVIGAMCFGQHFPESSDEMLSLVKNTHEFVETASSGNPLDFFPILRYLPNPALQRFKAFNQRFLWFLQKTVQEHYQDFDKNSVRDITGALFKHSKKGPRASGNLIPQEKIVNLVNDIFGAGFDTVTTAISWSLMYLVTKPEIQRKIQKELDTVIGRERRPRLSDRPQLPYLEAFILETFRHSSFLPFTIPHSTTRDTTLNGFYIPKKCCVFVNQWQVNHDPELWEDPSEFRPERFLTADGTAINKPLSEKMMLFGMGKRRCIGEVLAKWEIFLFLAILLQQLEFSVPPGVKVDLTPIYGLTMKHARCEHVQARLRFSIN

Cytochrome P450 2C9 = Cytochrome P450 2C9 (Homo sapiens, UniProt P11712)
Sequence of Cytochrome P450 2C9 (P11712 whole entry): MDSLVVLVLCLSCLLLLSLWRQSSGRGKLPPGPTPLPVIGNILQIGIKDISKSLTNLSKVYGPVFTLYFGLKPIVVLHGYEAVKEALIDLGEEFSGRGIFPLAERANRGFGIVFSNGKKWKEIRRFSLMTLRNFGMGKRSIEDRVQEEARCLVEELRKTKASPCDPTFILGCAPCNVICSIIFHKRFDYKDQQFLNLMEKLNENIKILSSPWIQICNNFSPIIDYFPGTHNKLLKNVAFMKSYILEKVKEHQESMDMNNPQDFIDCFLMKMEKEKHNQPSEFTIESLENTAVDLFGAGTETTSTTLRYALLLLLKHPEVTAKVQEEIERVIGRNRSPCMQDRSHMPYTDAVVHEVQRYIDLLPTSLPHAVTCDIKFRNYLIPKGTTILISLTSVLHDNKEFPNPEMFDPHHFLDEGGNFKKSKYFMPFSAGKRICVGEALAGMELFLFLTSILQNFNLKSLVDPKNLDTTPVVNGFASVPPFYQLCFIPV

Cytochrome P450 2C19 = Cytochrome P450 2C19 (Homo sapiens, UniProt P33261); assay: Cytochrome panel assay with activity outcomes. Panel member name: p450-cyp2c19 Compounds with AC50 equal or less than 10 uM are considered active; format: functional; settings: read-out: AC50
Sequence of Cytochrome P450 2C19 (P33261 whole entry): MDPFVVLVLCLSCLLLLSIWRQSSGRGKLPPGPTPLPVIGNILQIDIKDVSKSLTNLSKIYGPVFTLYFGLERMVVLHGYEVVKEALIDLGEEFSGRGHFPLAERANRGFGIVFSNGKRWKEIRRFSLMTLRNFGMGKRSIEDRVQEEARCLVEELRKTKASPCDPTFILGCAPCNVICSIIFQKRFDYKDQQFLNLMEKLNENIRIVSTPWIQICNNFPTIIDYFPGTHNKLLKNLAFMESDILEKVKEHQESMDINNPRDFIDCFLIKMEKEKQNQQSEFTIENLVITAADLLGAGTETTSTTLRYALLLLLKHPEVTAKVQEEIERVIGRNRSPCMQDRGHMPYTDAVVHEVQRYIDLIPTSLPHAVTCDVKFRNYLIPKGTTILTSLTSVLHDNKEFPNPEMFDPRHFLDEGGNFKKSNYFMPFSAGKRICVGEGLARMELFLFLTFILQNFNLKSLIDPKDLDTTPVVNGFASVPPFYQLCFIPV

[8] = Trypanosoma cruzi growth suppression in host cells – NIH3T3 host cells, beta-gal luminescence, confirmation (AID 2044); format: functional, cell-based;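 note: intracellular parasites grown in NIH/3T3 mouse fibroblasts as host cells; luminescent beta-galactosidase reporter signal from transgenic T. cruzi replicating inside host cells; inhibitors lower the luminescence signal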

With `Cc1nn(C)c(C(=O)Nc2cccc(Nc3ccccc3)c2)c1[N+](=O)[O-]` as the compound, how does the CC50 [1] read?
The CC50 was 23.1 µM (active).

Which CC50 [1] does the source give for `COc1ccc(C2=CC(c3c(C)nn(-c4ccccc4)c3Cl)n3nnnc3N2)cc1OC` (centres undefined) here?
Its CC50 is 24.1 µM (active).

What about the CC50 [2] of the same compound?
The CC50 was > 40 µM (active).

With `CCCc1cc(=O)n2nc(C)c(-c3ccc(Cl)cc3)c2[nH]1` as the compound, how does the EC50 (Streptococcus) read?
The EC50 was 11.3 µM (active).

And the EC50 [3]?
Its EC50 is 3.37 µM (active).

What about the EC50 (Streptokinase A) of the same compound?
The EC50 was > 150 µM (not active).

And the CC50 [2]?
The CC50 was 39.5 µM (active).

For `CCOc1ccccc1C(=O)N/N=C/c1ccoc1`, which EC50 [4] is on record?
The EC50 was 3.33 µM (active).

What about the EC50 [5] of the same compound?
Its EC50 is 138 µM (active).

For `CCCc1nc(NCCO)c(C#N)c2c1CCCC2`, which CC50 [1] is on record?
Its CC50 is 15.7 µM (active).

Which AC50 [6] does the source give for `O=C(NCC(=O)N1CCN(c2ccccc2O)CC1)c1cccs1` here?
The AC50 was 4.14 µM (active).

For `Fc1ccc2nc(Nc3nc4c(s3)CCCC4)sc2c1`, which EC50 (H4) is on record?
Its EC50 is 0.986 µM (active).

With `COc1ccc(OC)c2c(C)cc(N3CCCN(C)CC3)nc12` as the compound, how does the AC50 [6] read?
Its AC50 is 22 µM (active).

For `CCCOc1cccc(-c2nn(-c3ccccc3)cc2/C=C(\C#N)C(=O)NCCCn2ccnc2)c1`, which CC50 [2] is on record?
The CC50 was > 40 µM (active).

Which AC50 [6] does the source give for `CC(=O)N1CCN(C(=S)c2ccc(N(C)C)cc2)CC1` here?
Its AC50 is 1.13 µM (active).

With `COc1cc2c(cc1OC)C(C(=O)NC1CC1)C1c3ccccc3CCN1C2=O` (centres undefined) as the compound, how does the EC50 [7] read?
The EC50 was > 195 µM (not active).

With `O=C(O)c1ccc(CSc2nc3ccccc3o2)cc1` as the compound, how does the AC50 [6] read?
Its AC50 is 51.7 µM (active).

And the AC50 (Cytochrome P450 1A2)?
The AC50 was 0.0501 µM (inconclusive).

What about the AC50 (Cytochrome P450 2C9) of the same compound?
The AC50 was 39.8 µM (inconclusive).

For `Cn1c(/C=N/Nc2nc3ccccc3[nH]2)nc2ccccc21`, which EC50 [4] is on record?
The EC50 was > 38 µM (not active).

And the EC50 [5]?
The EC50 was 35.5 µM (active).

And the CC50 [2]?
Its CC50 is > 40 µM (active).

What does the source list for `Nc1ccc(N2CCN(C(=O)c3ccco3)CC2)cc1`?
AC50 [6]: 0.719 µM (active); AC50 (Cytochrome P450 2C19): 8.91 µM (inconclusive); AC50 (Cytochrome P450 2C9): 10 µM (inconclusive)

With `O=[N+]([O-])C(/C=C(\Cl)[N+](=O)[O-])=C(N1CCCCC1)N1CCCCC1` as the compound, how does the EC50 [8] read?
The EC50 was 0.956 µM (active).

And the EC50 (H4)?
The EC50 was > 120 µM (not active).

With `Cn1c(-c2ccc(F)cc2)cnc1NCc1cc2c(cc1[N+](=O)[O-])OCO2` as the compound, how does the AC50 [6] read?
The AC50 was 7.43 µM (active).

Which EC50 [4] does the source give for `CCn1cc(C(=O)OCC(=O)Nc2cccc(Cl)c2Cl)c(=O)c2ccc(C)nc21` here?
The EC50 was > 38 µM (not active).

What about the EC50 [5] of the same compound?
The EC50 was > 150 µM (inactive).

Which EC50 [7] does the source give for `O=C(Nc1cccc(F)c1)c1cc(-c2ccco2)nc2ccccc12` here?
The EC50 was > 195 µM (not active).

For `O=C(O)c1ccc(-c2nc(-c3ccc(Cl)cc3)cs2)cc1`, which EC50 [4] is on record?
The EC50 was 4.58 µM (active).

And the EC50 [5]?
The EC50 was 112 µM (active).

For `CNc1nc(N)c(C(=O)C23CC4CC(CC(C4)C2)C3)s1`, which AC50 [6] is on record?
Its AC50 is 0.437 µM (active).
